Laboratory results taken from patent US7625887B2, “Receptor agonists” (Takeda Pharmaceutical Company Limited, priority 2003, dated 2009).
pEC50: −log10 of the molar value.

Tests used:
guinea pig TGR5 = test: cAMP production increasing activity in guinea pig TGR5 expressing CHO cells; assay type: cell-based; details: test compound 2 μM; 10 μM lithocholic acid = 100%; average of 3 groups
[1] = system: guinea pig intestine primary culture cells; test: GLP-1 secretion from guinea pig intestine primary culture cells; assay type: cell-based; details: test compound 10 μM, 90 min
Procedure: Colon mucous membrane of guinea pig (Hartley, male, Charles River Japan, Inc.) was removed and subjected to an enzyme treatment to give a cell dispersion according to the following method.
The enzyme solution used was obtained by dissolving 5 mg/ml Collagenase (Sigma), 5 mg/ml Hyaluronidase (Sigma) and 0.5 mg/ml DNaseI (Sigma) in a medium. The medium used was Dulbecco's Modified Eagle Medium (DMEM, Invitrogen) supplemented with 4.5 g/l Glucose, 5% FBS (Invitrogen), 100 units/ml Penicillin (Invitrogen), 100 μg/ml Streptomycin (Invitrogen), 50 μg/ml Gentamicin (Invitrogen) and 20 mM Hepes (pH 7.3). After digestion by the enzyme solution at 37° C., the tissue sections were prepared into dispersed cells by passing through a pipette 4 times and the cells were collected. The collected cells were washed with a buffer (incubation buffer) obtained by adding 5.5 mM Glucose and 0.1% BSA to a modified Krebs-Ringer bicarbonate buffer (KRBH, 116 mM NaCl, 4.7 mM KCl, 1.2 mM KH2PO4, 1.2 MM MgSO4, 2.5 mM CaCl2, 25 mM NaHCO3, 24 mM HEPES, pH 7.3), and preincubated at 37° C. under 5% CO2 for 30 min. 0.1 μM Phorbol ester (Wako), 1% DPPIV inhibitor (Linco) and a test compound were added to the above-mentioned incubation buffer, and the obtained buffer was added to the cells after the aforementioned preincubation and incubated for 90 min. The culture supernatant was collected and cryopreserved. The concentration of GLP-1 released in the culture supernatant was measured using an ELISA kit (Linco).

NCI-H716 cells [2] = test: intracellular cAMP production increasing action in NCI-H716 cells; assay type: cell-based, human; details: 10 μM, 2 hrs; production amount in TLCA (50 μM) was 100%; Base 11
Procedure: NCI-H716 (ATCC) was suspended in a medium (Dulbecco's Modified Eagle Medium (DMEM, Invitrogen) supplemented with 10% fetal bovine serum (Invitrogen), 100 U/ml penicillin and 100 μg/ml streptomycin), seeded in a 96 well plate, cultured for 2 days and used for cAMP production assay. As a cAMP assay buffer, modified Krebs-Ringer bicarbonate buffer (KRBH, 116 mM NaCl, 4.7 mM KCl, 1.2 mM KH2PO4, 1.2 MM MgSO4, 2.5 mM CaCl2, 25 mM NaHCO3, 24 mM HEPES pH 7.3), supplemented with glucose 5.5 mM, bovine serum albumin (BSA) 0.1%, and 3-isobutyl-1-methylxanthine (IBMX, Sigma) 1 mM, was used. The cells were washed once with cAMP assay buffer. Bile acids (50 μM) diluted with cAMP assay buffer or the compounds of the present invention (10 μM) were added thereto and the cells were incubated for 2 hrs. The culture supernatant was discarded, and the cAMP production amount was measured by cAMP Screen System (ABI). In the Table, Base means non-addition of a test compound.

NCI-H716 cells [3] = test: GLP-1 secretion from NCI-H716 cell line; assay type: cell-based, human; details: 5 μM, 2 hrs; secretion amount in Base was 100%
Procedure: NCI-H716 cells secrete Glucagon-like peptide-1 (GLP-1). GLP-1 is a peptide useful for controlling blood glucose level because it acts on the pancreas to cause secretion of insulin and the like. In the same manner as in Experimental Example 9, NCI-H716 (ATCC) was seeded in a 96 well plate and, after incubation for 2 days, used for the following secretion test. As a buffer for secretion test, modified Krebs-Ringer bicarbonate buffer (KRBH, 116 mM NaCl, 4.7 mM KCl, 1.2 mM KH2PO4, 1.2 mM MgSO4, 2.5 mM CaCl2, 25 mM NaHCO3, 24 mM HEPES, pH 7.3) supplemented with glucose 5.5 mM and BSA 0.1% was used. The cells were washed once with the buffer for secretion test, preincubated at 37° C. under 5% CO2, bile acid diluted with the buffer for secretion test was added and the cells were cultured at 37° C. under 5% CO2 for 2 hrs. The cell culture supernatant was collected, cryopreserved and the GLP-1 content in the supernatant was measured using a GLP-1 measurement EIA kit (Linco) The results are shown in Table 9. In the Table, Base means non-addition of a test compound.

[4] = system: guinea pig peripheral blood mononuclear cells; test: TNF secretion in LPS-stimulated guinea pig peripheral blood mononuclear cells; assay type: cell-based; details: 16 hrs, test compound 10 μM; non-addition: 160 with LPS, 13 without
Procedure: (§1) The peripheral blood was taken from guinea pig, and mononuclear cell fraction was obtained by a density separation method using Ficoll-Paque PLUS (Amersham Pharmacia). The fraction at a concentration of 1×10^5/well was cultured for 16 hrs in the presence of […] LPS in a 96-well plate upon addition of bile acid or a test compound. The culture supernatant was collected and TNF and IL-6 in the supernatant were quantitated.
The TNF secretion amount in the culture supernatant was measured in the same manner as in Experimental Example 7.

[5] = system: guinea pig peripheral blood mononuclear cells; test: IL-6 secretion in LPS-stimulated guinea pig peripheral blood mononuclear cells; assay type: cell-based; details: 16 hrs, test compound 10 μM; non-addition: 520 with LPS, 32 without
Procedure: as §1
The quantitation of IL-6 in the culture supernatant was performed using IL-6 dependent cell line 7TD1 (RIKEN Institute) with its growth promoting action as an index. First, 7TD1 cells were suspended in a basic medium (RPMI1640 (Invitrogen) supplemented with 1% non-essential amino acid (Invitrogen) and 55 μM 2-mercaptoethanol (Invitrogen)) and seeded in a 96-well plate at a concentration of 2×10^3/well. Immediately after seeding, peripheral blood mononuclear cell culture supernatant diluted with a dilution medium (the above-mentioned basic medium supplemented with 10% FBS) was added and the cells were cultured for 2 days. The IL-6 content was determined by measuring the growth of the 7TD1 cells in the obtained culture product using a CellTiter-Glo (Promega). As the standard sample, human recombinant IL-6 (Genzyme) was used.

human TGR5 = target: T1, human TGR5 (Homo sapiens, UniProt Q8TDU6); test: cAMP production increasing activity in human TGR5 expressing CHO cells; assay type: cell-based; details: read-out: EC50 value (concentration necessary to make the cAMP production amount 50%)
T1 construct: expressed in transfected cells; host or cells: CHO cells
T1 sequence (Q8TDU6 1-330): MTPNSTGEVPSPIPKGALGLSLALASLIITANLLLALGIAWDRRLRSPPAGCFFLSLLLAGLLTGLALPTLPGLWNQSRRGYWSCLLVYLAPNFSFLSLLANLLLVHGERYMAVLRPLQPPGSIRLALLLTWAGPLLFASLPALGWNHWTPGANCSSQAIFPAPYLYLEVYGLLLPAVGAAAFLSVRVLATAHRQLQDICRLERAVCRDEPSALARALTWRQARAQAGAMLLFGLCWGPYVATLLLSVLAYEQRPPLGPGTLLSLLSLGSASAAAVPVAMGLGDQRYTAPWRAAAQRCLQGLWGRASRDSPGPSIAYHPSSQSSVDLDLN

SMILES | cAMP producing activity (control %) (guinea pig TGR5) | GLP-1 (% relative to non-addition) [1] | cAMP production increasing activity (%) (NCI-H716 cells [2]) | GLP-1 secretion increase (%) (NCI-H716 cells [3]) | TNF α [4] [pg/mL] | IL-6 [5] [pg/mL] | pEC50 (human TGR5)
O=S(=O)(c1cc(C(F)(F)F)cc(C(F)(F)F)c1)N1CCOc2nccc(-c3ccccc3)c2C1 [Example 22C, 4-{[3,5-bis(trifluoromethyl)phenyl]sulfonyl}-6-phenyl-2,3,4,5-tetrahydropyrido[3,2-f][1,4]oxazepine] | 101 | 313 % relative to non-addition | 100 | 127 | 66 | 170 | –
CC(=O)NCc1cccc(C2OC(CC(=O)NCc3ccccc3C(F)(F)F)C(=O)N(CC(C)(C)C)c3ccc(Cl)cc32)c1 (stereo not drawn) [Example 14, 2-[3,5-trans-5-[3-(acetylaminomethyl)phenyl]-7-chloro-1-neopentyl-2-oxo-1,2,3,5-tetrahydro-4,1-benzoxazepin-3-yl]-N-[2-(trifluoromethyl)benzyl]acetamide] | 76 | 167 % relative to non-addition | 104 | 157 | 83 | 260 | > 7.00
